Measurements as given in patent US20250195521A1 (Revolution Medicines, Inc., priority 2020, published 2025).
Like-named read-outs stand apart in the source and are kept apart here.

Experiments:
[1] = tested on: K-Ras G12C (NCI-H358 cells); assay: Potency assay: pERK in NCI-H358 cells; assay type: cell-based, human; conditions: Homo sapiens, read-out: pERK EC50 (H358 KRAS G12C)
Summary of the method: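 Cells plated the day before were exposed for 4 h at 37° C, 5% CO2 to a 10-point, 3-fold DMSO dilution series (10 mM top stock), in duplicate. Phospho-ERK was read by AlphaLISA SureFire Ultra or by In-Cell Western with DRAQ5 DNA stain, and IC50 came from a 4-parameter sigmoidal fit.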

[2] = tested on: Capan-1 cells (K-Ras G12V); assay: CellTiter-Glo cell viability, Capan-1; assay type: cell-based, human; conditions: Homo sapiens, CAPAN-1, 120 h, read-out: Capan-1 Cell Viability IC50
Summary of the method: (§1)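 Cells seeded, compound dispensed straight into wells, 5-day exposure. Plates brought to room temperature ~30 min, CellTiter-Glo luminescence measured. Normalized to DMSO (%), 4-parameter logistic fit.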

KRAS WT = KRAS WT (Homo sapiens (Human), UniProt P01116+P62937); assay: Ras-Raf disruption/FRET/MOA assay (BRAF RBD, Cyclophilin A); assay type: biochemical; conditions: read-out: KRAS WT FRET data IC50
Summary of the method: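 His6-K-Ras-GMPPNP (12.5 nM), GST-BRAF RBD (50 nM) and tagless Cyclophilin A (25 μM) were combined in 25 mM HEPES pH 7.3 with 100 mM NaCl, 5 mM MgCl2, 0.1% BSA and 0.002% Tween20, with compound as a 10-point 3-fold series from 30 μM final, then incubated 3 h at 25° C.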

[3] = tested on: NCI-H358 cells (K-Ras G12C); assay: CellTiter-Glo cell viability, NCI-H358; assay type: cell-based, human; conditions: Homo sapiens, NCI-H358, 120 h, read-out: H358 Cell Viability IC50
Summary of the method: as §1

NCI-H358 (K-Ras G12C) = assay: CellTiter-Glo cell viability assay, NCI-H358; assay type: cell-based, human; conditions: Homo sapiens, NCI-H358, 120 h
Summary of the method: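 Cells seeded, compound added directly to plates; day 5: plates to RT ~30 min, CellTiter-Glo luminescence; (sample/avg DMSO)*100; 4-parameter fit.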

Sequence of KRAS WT (P01116 other isoform, or with tags, fused parts or gaps): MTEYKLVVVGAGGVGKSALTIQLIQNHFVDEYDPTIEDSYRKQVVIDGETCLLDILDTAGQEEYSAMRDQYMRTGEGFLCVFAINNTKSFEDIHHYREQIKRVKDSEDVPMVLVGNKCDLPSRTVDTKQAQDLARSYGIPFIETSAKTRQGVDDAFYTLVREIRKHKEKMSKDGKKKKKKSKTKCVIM
Sequence of KRAS WT (P62937 whole entry): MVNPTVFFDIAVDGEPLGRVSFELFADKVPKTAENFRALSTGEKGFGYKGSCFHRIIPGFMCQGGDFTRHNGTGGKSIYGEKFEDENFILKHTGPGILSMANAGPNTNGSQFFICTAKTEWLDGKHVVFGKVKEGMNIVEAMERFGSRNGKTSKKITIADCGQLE

EC50 ([1]; NCI-H358 cells, 4 hours)	IC50 ([3]; K-Ras G12C, 5-day treatment)	IC50 (NCI-H358 (K-Ras G12C); 5-day treatment, read-out: H358 Cell Viability assay data (K-Ras G12C, IC50))	Structure (SMILES)	EC50 ([1]; NCI-H358, 4 h)	IC50 [2]	IC50 (KRAS WT)	IC50 [3]	IC50 (NCI-H358 (K-Ras G12C); read-out: H358 Cell Viability assay data (K-Ras G12C, IC50, uM), 5-day treatment)	IC50 ([2]; K-Ras G12V, 5-day treatment)
–	–	–	CCn1c(-c2cccnc2[C@H](C)OC)c2c3cc(ccc31)-c1csc(n1)[C@@H](OC)[C@H](NC(=O)[C@H](C(C)C)N(C)C(=O)N(C)C)C(=O)N1CCC[C@H](N1)C(=O)OCC(C)(C)C2 [Compound A598, (2S)—N-((6^3S,3S,4S,Z)-1^1-ethyl-3-methoxy-1^2-(2-((S)-1-methoxyethyl)pyridin-3-yl)-10,10-dimethyl-5,7-dioxo-6^1,6^2,6^3,6^4,6^5,6^6-hexahydro-1^1H-8-oxa-2 (4,2)-thiazola-1 (5,3)-indola-6 (1,3)-pyridazinacycloundecaphane-4-yl)-3-methyl-2-(1,3,3-trimethylureido) butanamide]	< 5000 nM	100 to 1000 nM	100 to 1000 nM	100 to 1000 nM	0.01 to 0.1 µM	–
< 5000 nM	100 to 1000 nM	< 0.01 µM	CCn1c(-c2cccnc2[C@H](C)OC)c2c3cc(ccc31)-c1csc(n1)C[C@H](NC(=O)[C@H](C(C)C)N(C)C(=O)N1CC3(CCN(C)C3)C1)C(=O)N1CCC[C@H](N1)C(=O)OCC(C)(C)C2 [Compound A602]	–	–	100 to 1000 nM	–	–	100 to 1000 nM
